Results on 26 molecules are retold here after patent publication US5521193A, “Benzimidazole compounds” (G. D. Searle & Co., priority 1995, dated 1996).

In one assay the target is T1, 5-HT3 receptor (Rattus norvegicus, UniProt P35563).
T1 construct: Brain cortices were obtained from male rats and a membrane fraction prepared by standard techniques; from tissue; host or cells: rat brain cortex membranes
T1 sequence (P35563 24-483): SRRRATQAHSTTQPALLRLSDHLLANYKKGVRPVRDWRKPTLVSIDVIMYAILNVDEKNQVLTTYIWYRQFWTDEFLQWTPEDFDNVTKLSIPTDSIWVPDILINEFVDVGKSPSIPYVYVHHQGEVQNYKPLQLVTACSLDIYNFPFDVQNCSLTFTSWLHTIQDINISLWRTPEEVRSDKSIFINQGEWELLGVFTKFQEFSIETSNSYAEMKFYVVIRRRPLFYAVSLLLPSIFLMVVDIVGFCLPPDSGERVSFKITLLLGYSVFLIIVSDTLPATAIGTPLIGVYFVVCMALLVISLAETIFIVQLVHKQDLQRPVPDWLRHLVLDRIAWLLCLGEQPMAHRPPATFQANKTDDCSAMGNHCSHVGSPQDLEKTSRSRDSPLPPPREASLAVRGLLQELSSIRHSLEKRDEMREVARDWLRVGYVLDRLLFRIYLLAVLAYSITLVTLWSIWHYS
The assay is described as follows: Serotonin (5-HT3) radioligand binding, [3H]-GR65630, rat brain cortex membranes. The note with it: for Ki: [3H]-GR65630 0.2 nM, 60 min, 22° C. Here is the method: GR65630 binds to the 5-HT3 receptor. Brain cortices were obtained from male rats and a membrane fraction prepared by standard techniques. 0.04 mg of membrane prep was incubated with 0.2 nM […] for 60 minutes at 22° C. […] Membranes were filtered and washed times and the filters were counted to determine [3H]-GR65630 specifically bound. Kilpatrick G. J., Jones B. J. and Tyers M. B. Identification and distribution of 5-HT3 receptors in rat brain using radioligand binding assay. Nature, 330 : 746-748, 1987.

Another assay has as its target T2, 5-HT4 receptor (Rattus norvegicus, UniProt Q62758).
T2 construct: One 2 cm segment of intrathoracic esophagus proximal to the diaphragm was removed from male rats; from tissue; host or cells: rat intrathoracic oesophagus, inner tunica muscularis mucosae
The assay is described as follows: biochemical. The settings on record: carbachol (3 μM)-contracted rat esophagus TMM; 37° C.; tissues from 5 rats; read-out: 5-HT4 Agonism (Rat TMM) In Vitro Assay: EC50 Values. Here is the method:
(§1) 5-HT4 agonist activity was determined in the in vitro rat tunice muscularis mucosae (TMM) assay. (Baxter et el., Naunyn Schmied Arch. Pharmacol, 1991, 343,439). The 5-HT4 agonist or antagonist activity and/or 5-HT3 antagonist activity of the compounds of the invention herein, can be determined by the assays as described herein, without undue experimention.
Agonist activity was determined utilizing relaxation of carbachol-contracted rat tunica muscularis mucosae. One 2 cm segment of intrathoracic esophagus proximal to the diaphragm was removed from male rats, weighing approximately 300 gm, and the outer muscle layers removed. The inner tunica muscularis mucosa was mounted under 0.2-0.3 g of tension in a tissue bath containing oxygenated Tyrode's solution at 37° C. […] Following a 30 min equilibrium period, tissues were isometrically contracted with carbachol (3 μM) to obtain a tonic contraction. A stable plateau was obtained within 20 min when test compound was added cumulatively to relax the muscle strip. EC50 values were obtained for each agonist in tissues from 5 rats.

A further assay deals with 5-HT3. The assay is described as follows: Bezold-Jarisch Reflex (inhibition of 5-HT-induced bradycardia in anesthetized mice). Format: in vivo. The settings on record: i.p., 30 min before 5-HT 0.25 mg/kg i.v.; >50 percent reduction in bradycardic response vs vehicle considered significant; pentobarbital anesthetized mice. Here is the method:
as §1
The compound to be evaluated was administered i.p. (mg/kg) to a group of 3 mice. […] A greater than 50 percent (>50) reduction in the bradycardic response relative to vehicle-treated control mice was considered significant.
This method has been described by Saxena, P. R. and Lawang, A., Arch. Int. Pharmacodyn., 277:235-252, 1985.
The assay results for the compounds of the present invention and their Minimum Effective Dose (MED) and the reference compounds and their MEDs are recorded in Table I.

T2 sequence (Q62758 whole entry): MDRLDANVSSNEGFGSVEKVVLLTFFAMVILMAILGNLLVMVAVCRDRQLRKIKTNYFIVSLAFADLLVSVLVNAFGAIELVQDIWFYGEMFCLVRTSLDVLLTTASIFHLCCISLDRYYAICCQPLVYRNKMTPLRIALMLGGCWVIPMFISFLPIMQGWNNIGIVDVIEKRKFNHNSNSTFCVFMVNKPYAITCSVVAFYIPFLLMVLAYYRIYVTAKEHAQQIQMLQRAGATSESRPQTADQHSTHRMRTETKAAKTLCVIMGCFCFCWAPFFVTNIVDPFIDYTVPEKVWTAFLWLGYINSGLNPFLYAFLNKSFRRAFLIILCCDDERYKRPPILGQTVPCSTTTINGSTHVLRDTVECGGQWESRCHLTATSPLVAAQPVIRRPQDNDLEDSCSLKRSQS

By Ki is commonly meant the dissociation constant of the complex between target and ligand, obtained from inhibition or displacement. Regarding `CCn1c(=O)n(C(=O)NC2C3CC4CC2CN(C4)C3)c2ccc(Cl)cc21` (stereo not drawn) [Example 19, N-(1-azatricyclo[3.3.1.1^3,7]decan-4-yl)-5-chloro-3-ethyl-2,3-dihydro 2-oxo-1H-benzimidazole-1-carboxamide], on 5-HT3 receptor, the affinity, expressed as Ki, was 1200 nM. Usually EC50 stands for the midpoint of the concentration-response curve. In the case of `CC(C)n1c(=O)n(C(=O)NCC23CCCN2CCC3)c2ccccc21` [Example 14, N-[(hexahydro-7aH-pyrrolizin-7a-yl)methyl]-2,3-dihydro-3-(1-methylethyl) 2-oxo-1H-benzimidazole-1-carboxamide], the 50% effective concentration (EC50) on 5-HT4 receptor came to 3830 nM. The molecule also showed a Ki on 5-HT3 receptor of 36 nM. Take `CCn1c(=O)n(C(=O)NC2C3CC4CC2CN(C4)C3)c2cc(Cl)ccc21` (stereo not drawn) [Example 21, N-(1-azatricyclo[3.3.1.1^3,7]decan-4-yl)-6-chloro-3-ethyl-2,3-dihydro 2-oxo-1H-benzimidazole-1-carboxamide]: the EC50 on 5-HT4 receptor is 2140 nM. In addition, the Ki on 5-HT3 receptor came out at 55 nM. In the case of `CC(C)n1c(=O)n(C(=O)NCC23CC4CN(CC4C2)C3)c2cc(Cl)ccc21` [Example 34, N-[(Hexahydro-2,5β-methano-1H-3aα,6aα-cyclopenta[c]-pyrrol-5-yl)methyl]-6-chloro-2,3-dihydro-3-(1-methylethyl)-2-oxo-1-benzimidazole-1-carboxamide], the EC50 at 5-HT4 receptor is 248 nM.

Regarding `CCn1c(=O)n(C(=O)NC2C3CC4CC2CN(C4)C3)c2ccccc21` (stereo not drawn) [Example 15, N-(1-azatricyclo[3.3.1.1^3,7]decan-4-yl)-3-ethyl-2,3-dihydro-2-oxo 1H-benzimidazole-1-carboxamide], the 50% effective concentration (EC50) at 5-HT4 receptor is 4580 nM. In addition, at 5-HT3 receptor, the Ki came to 92 nM. For `CC(C)n1c(=O)n(C(=O)NC[C@@H]2CN3CC[C@H]2C3)c2ccccc21` (relative stereo) [Example 35, N-[(endo-1-azabicyclo[2.2.1]heptan-3-yl)methyl-]-2,3-dihydro-3-(1-methylethyl) -2-oxo-1H-benzimidazole-1-carboxamide], the EC50 on 5-HT4 receptor was determined as 294 nM. With `O=c1[nH]c2ccccc2n1CCCN1CCC(n2c(=O)[nH]c3cc(Cl)ccc32)CC1` [domperidone], in the assay on 5-HT3, the “Minimum Effective Dose (MED)” value is reported as > 10 mg/kg. Turning to `CCn1c(=O)n(C(=O)NC2C3CC4CC2CN(C4)C3)c2ccccc21` (stereo not drawn) [Example 20, N-(1-azatricyclo[3.3.1.1^3,7]decan-4-yl)-3-ethyl-2,3-dihydro-2-oxo-1H-benzimidazole 1-carboxamide], on 5-HT4 receptor, the EC50 is 10000 nM. For the same molecule, the Ki at 5-HT3 receptor came to 19 nM. `CCn1c(=O)n(C(=O)NC2C3CC4CC2CN(C4)C3)c2ccc(Cl)cc21` (stereo not drawn) [Example 22, N-(1-azatricyclo[3.3.1.1^3,7]decan-4-yl)-5-chloro-3-ethyl-2,3-dihydro 2-oxo-1H-benzimidazole-1-carboxamide] showed a Ki on 5-HT3 receptor of 360 nM. `CC(C)n1c(=O)n(C(=O)NCC23CC4CN(CC4C2)C3)c2ccccc21` [Example 33, N-[(Hexahydro-2,5β-methano-1H-3aα,6aα-cyclopenta-[c]pyrrol-5-yl)methyl]-2,3-dihydro 3-(1-methylethyl)-2-oxo-1H-benzimidazole-1-carboxamide]: the concentration for a half-maximal effect (EC50) on 5-HT4 receptor came out at 337 nM. Take `Cc1nc[nH]c1CCC(=O)c1cn(C)c2ccccc12` [GR65630, reference compound]: the Bmax on 5-HT3 receptor ([3H]-GR65630, rat brain cortex membranes) worked out at 154 fmol/mg protein. For `CC(C)n1c(=O)n(C(=O)N[C@@H]2[C@@H]3C[C@H]4CN(C3)C[C@H]42)c2ccccc21` (relative stereo) [Example 24, N-(hexahydro-1H-2,5β-methano-3aα,6aα-cyclopenta [c]pyrrol-4α-yl)-2,3-dihydro-3-(1-methylethyl)-2-oxo 1H-benzimidazole-1-carboxamide], the EC50 on 5-HT4 receptor amounted to 1510 nM. Also, affinity on 5-HT3 receptor was put at a Ki of 2 nM. Turning to `CC(C)n1c(=O)n(C(=O)NC2C3CC4CC2CN(C4)C3)c2cc(Cl)ccc21` (stereo not drawn) [Example 16, N-(1-azatricyclo[3.3.1.1^3,7]decan-4-yl)-6-chloro-2,3-dihydro-3-(1-methylethyl) 2-oxo-1H-benzimidazole-1-carboxamide], the 50% effective concentration (EC50) at 5-HT4 receptor was 10000 nM. For the same molecule, the affinity on 5-HT3 receptor, expressed as Ki, was 1200 nM.

Take `CC(C)n1c(=O)n(C(=O)NC[C@H]2CN3CC[C@H]2C3)c2ccccc21` (relative stereo) [Example 36, N-[(exo-1-azabicyclo[2.2.1]heptan-3-yl)methyl-]-2,3-dihydro-3-(1-methylethyl) 2-oxo-1H-benzimidazole-1-carboxamide]: the EC50 on 5-HT4 receptor was 302 nM. With `CN1[C@@H]2C[C@@H](OC(=O)[C@H](CO)c3ccccc3)C[C@H]1[C@@H]1O[C@@H]12` [scopolamine], in the assay on 5-HT3, the “Minimum Effective Dose (MED)” value stood at 2.5 mg/kg. In the case of `CCN(CC)CCNC(=O)c1cc(Cl)c(N)cc1OC` [metoclopramide], the “Minimum Effective Dose (MED)” value in the assay with 5-HT3 is listed as 5 mg/kg. On to `CC(C)n1c(=O)n(C(=O)NCC2C3CC4CC2N(C4)C3)c2ccccc21` (stereo not drawn) [Example 30, N-[(Hexahydro-2β,6β-methano-1H, 7aα-pyrrolizin-1α-yl)methyl]2,3-dihydro-3-(1-methylethyl)-2-oxo-1H-benzimidazole-1-carboxamide], for which, on 5-HT4 receptor, the EC50 came to 219 nM. `CCn1c(=O)n(C(=O)NC2C3CC4CC2CN(C4)C3)c2cc(Cl)ccc21` (stereo not drawn) [Example 18, N-(1-azatricyclo[3.3.1.1^3,7]decan-4-yl)-6-chloro-3-ethyl-2,3-dihydro 2-oxo-1H-benzimidazole-1-carboxamide] showed a Ki on 5-HT3 receptor of 1200 nM. As for `CC(C)n1c(=O)n(C(=O)NCC2C3CC4CC2CN(C4)C3)c2cc(Cl)ccc21` (stereo not drawn) [Example 22C, N-(1-azatricyclo[3.3.1.1^3,7]decan-4-ylmethyl)-6-chloro-2,3-dihydro-3-(1-methylethyl) 2-oxo-1H-benzimidazole-1-carboxamide], the EC50 on 5-HT4 receptor amounted to 722 nM. `CC(C)n1c(=O)n(C(=O)NCCC23CCCN2CCC3)c2cc(Cl)c(N)cc21` [Example 12B, 6-Chloro-5-amino-N-[2-(hexahydro-7aH-pyrrolizin-7a-yl)ethyl]-2,3-dihydro-3-(1-methylethyl)-2-oxo-1H-benzimidazole-1-carboxamide]: the EC50 on 5-HT4 receptor worked out at 374 nM. For the molecule `CC(C)n1c(=O)n(C(=O)NCC2C3CC4CC2CN(C4)C3)c2ccccc21` (stereo not drawn) [Example 19B, N-(1-azatricyclo[3.3.1.1.^3,7]decan-4-ylmethyl)-2,3-dihydro-3-(1-methylethyl) 2-oxo-1H-benzimidazole-1-carboxamide], the EC50 on 5-HT4 receptor was 926 nM.

Consider `CC(C)n1c(=O)n(C(=O)NCCC23CCCN2CCC3)c2ccc(Cl)cc21` [Example 12, 5-chloro-N-[2-(hexahydro-7aH-pyrrolizin-7a-yl)ethyl]2,3-dihydro-3-(1-methylethyl)-2-oxo-1H-benzimidazole 1-carboxamide], for which the EC50 at 5-HT4 receptor amounted to 9470 nM. At 5-HT3 receptor, this molecule gave a Ki of 2800 nM. Consider `CC(C)n1c(=O)n(C(=O)NCCC23CCCN2CCC3)c2cc(Cl)ccc21` [Example 12A, 6-Chloro-N-[2-(hexahydro-7aH-pyrrolizin-7a-yl)ethyl]2,3-dihydro-3-(1-methylethyl)-2-oxo-1H-benzimidazole 1-carboxamide], for which the EC50 on 5-HT4 receptor was 1360 nM.

For `CC(C)n1c(=O)n(C(=O)NCC2C3CC4CC2N(C4)C3)c2ccccc21` (stereo not drawn) [Example 29, N-[(Hexahydro-2β,6β-methano-1H, 7aα-pyrrolizin-1β-yl)methyl]2,3-dihydro-3-(1-methylethyl)-2-oxo-1H-benzimidazole-1-carboxamide], the EC50 at 5-HT4 receptor is 1630 nM. With `CC(C)n1c(=O)n(C(=O)N[C@H]2C[C@@H]3CN(C)C[C@@H]3C2)c2ccccc21` [Example 14A], at 5-HT4 receptor, the EC50 was 874 nM. Still for that read-out and setting: in the case of `CC(C)n1c(=O)n(C(=O)NCC2C3CC4CC2CN4C3)c2ccccc21` (stereo not drawn) [Example 32, N-(Hexahydro-2,6-methano-1H-pyrrolizin-8-ylmethyl]-2,3-dihydro-3(1-methylethyl)-2-oxo-1H-benzimidazole-1-carboxamide] it was 1320 nM.
